Measured values from US12325880B2, “Identification of PDE3 modulator responsive cancers” (THE BROAD INSTITUTE, INC., priority 2018, dated 2025).

Key:
Format in all cases: cell-based
HeLa cells = test: 72 h Cell Titer Glo viability, HeLa; design: AUC: unit not given beside the values
Protocol: (§1) To measure cancer cell death in response to 6-(4-(diethylamino)-3-nitrophenyl)-5-methyl-4,5-dihydropyridazin-3(2H)-one (DN/DP) treatment, cells were plated in 384w assay plates at the following cell density per well: 500 cells of HeLa (DMEM), A2058 (DMEM), HMCB (EMEM), IGR37 (DMEM), NCIH1734 (RPMI), 750 cells of CAL51 (DMEM), COL0741 (RPMI), DKMG (RPMI), GB1 (EMEM), HEL (RPMI), HEL9217 (RPMI), JHUEM1 (DMEM+F12), L3.3 (RPMI) and TE4 (RPMI), HCC15 (RPMI), UACC257 (RPMI), 1000 cells for HUT78 (IMEM), NCIH1563 (RPMI), NCIH2122 (RPMI), NCIH2172 (RPMI), RVH421 (RPMI) and SKMEL3 (McCoy's 5A), 1500 cells for C32 (EMEM), HS578T (DMEM) and JHOM1 (DMEM+F12). Cells were incubated at 37° C. overnight and then treated with a DNMDP dose dilution series using an HP D300 digital dispenser. After 72 hours, the viability of cells in each well were measured by Cell Titer Glo (Promega G755B and G756B). Percent viability values were determined using the values from untreated wells and AUC values were calculated using a 4-parameter fit. DNMDP was purchased from Life Chemicals (F1638-0042) and trequinsin was purchased from Sigma-Aldrich (T2057).
(§2) PDE3A CRISPR KO cells (sgRNA #2) were generated according to de Waal et al, 2016 (2), hereby incorporated by reference in its entirety. CRISPR target sites for PDE3B and AIP were identified using the CHOPCHOP CRISPR Design Tool (chopchop.cbu.uib.no). For cloning of sgRNAs, forward and reverse oligos were annealed, phosphorylated and ligated into a BsmBI-digested lentiCRISPRv2 vector. Lentivirus carrying each guide construct was packaged as described above and used to infect target cells. Transduced target cells were selected using 1 μg/ml puromycin and passaged for 7 days before use.

PDE3A-SLFN12 complex = molecular target: T1, PDE3A-SLFN12 complex (Homo sapiens, UniProt Q14432); test: PDE3A immunoprecipitation / immunoblot for PDE3A-SLFN12 complex formation in HeLa cells; conditions: for complex formation between PDE3A and FLAG-tagged SLFN12 with AIP knocked out (FIG. 8B) / complex formation between PDE3A and FLAG-tagged SLFN12 (FIG. 8B): HeLa cells, anti-PDE3A pull down, 10 μM compound; for complex formation between PDE3A and FLAG-tagged SLFN12 with AIP knocked out (FIG. 8B): AIP Crispr knockout (KO sg2, KO sg3)
T1 construct: immunoprecipitated endogenous PDE3A; endogenous in cells; host or cells: HeLa cells, parental or AIP CRISPR knockout; PDE3A is endogenous; SLFN12 is ectopically expressed
Protocol: Because decreased PDE3A protein expression could impact DNMDP-induced PDE3A-SLFN12 complex formation, the effects of AIP knockout on this complex formation were also measured. As there is no good antibody for SLFN12 protein, we ectopically expressed V5-tagged SLFN12 in parental or AIP-knockout HeLa cells, immunoprecipitated endogenous PDE3A, and assessed whether V5-SLFN12 could be detected in the immunoprecipatites. Cells were plated in 10 cm petri dishes and collected at 50-90% confluence. For PDE3A immunoblotting in biomarker positive cells and in AIP KO cells, cells were seeded in 15 cm plates at similar density as in viability assays with a vessel scaling factor of 5000, e.g., 500 cells per well was scaled to 10^6 cells per 10 cm plate or 2.5×10^6 cells per 15 cm plate, and then cultured for 72 hours before collection. Cell pellets were lysed at 4° C. for 20 minutes in modified RIPA buffer (150 mM NaCl, 10% glycerol, 50 mM Tris-Cl pH 8.0, 50 mM MgCl2, 1% NP-40) supplemented with EDTA-free protease inhibitors (Sigma-Aldrich 4693159001) and PhosSTOP phosphatase inhibitors (Sigma-Aldrich 4906837001). Lysates were clarified by centrifugation at 13,000 rpm×10 min at 4° C. and quantified using BCA protein assays (Thermo Fisher Scientific 23225). Clarified lysates were resolved on 4-12% Bis-Tris PAGE gels, transferred to nitrocellulose membranes (Thermo Fisher Scientific IB23001) and immunoblotted with primary antibodies against PDE3A (Bethyl 302-740A, 1:2000), V5 (Life Technologies R96205 at 1:5,000), AIP (Thermo Fisher Scientific MA3-16515 at 1:2000), Vinculin (Sigma-Aldrich V9264 at 1:5,000), GAPDH (Cell Signaling Technology 2118 at 1:2000) and secondary antibodies from LiCOR Biosciences (92632210 and 926068021, each at 1:10,000). Blots were washed and imaged using a LiCOR Odyssey infrared imager, and fluorescent signals quantified using the Image Studio software provided by the LiCOR manufacturer.

[1] = test system: COLO741 melanoma cell line; test: 72 h Cell Titer Glo viability, COLO741; design: unit not given beside the values; conditions: 72 h Cell Titer Glo dose response, AUC on a scale from 0-4
Protocol: as §1

C32 melanoma cell line = test: 72 h Cell Titer Glo viability, C32; design: AUC: unit not given beside the values
Protocol: as §1

IGR37 melanoma cell line = test: 72 h Cell Titer Glo viability, IGR37; design: unit not given beside the values; conditions: 72 h Cell Titer Glo dose response, AUC on a scale from 0-4
Protocol: as §1

[2] = test system: SKMEL3 melanoma cell line; test: 72 h Cell Titer Glo viability, SKMEL3; design: unit not given beside the values; conditions: 72 h Cell Titer Glo dose response, AUC on a scale from 0-4
Protocol: as §1

[3] = test system: UACC257 melanoma cell line; test: 72 h Cell Titer Glo viability, UACC257; design: AUC: unit not given beside the values
Protocol: as §1

HMCB melanoma cell line = test: 72 h Cell Titer Glo viability, HMCB; design: unit not given beside the values; conditions: 72 h Cell Titer Glo dose response, AUC on a scale from 0-4
Protocol: as §1

[4] = test system: RVH421 melanoma cell line; test: 72 h Cell Titer Glo viability, RVH421
Protocol: as §1

A2058 melanoma cell line = test: 72 h Cell Titer Glo viability, A2058; design: unit not given beside the values; conditions: 72 h Cell Titer Glo dose response, AUC on a scale from 0-4
Protocol: as §1
PDE3A CRISPR KO cells (sgRNA #2) were generated according to de Waal et al, 2016 (2), hereby incorporated by reference in its entirety. CRISPR target sites for PDE3B and AIP were identified using the CHOPCHOP CRISPR Design Tool (chopchop.cbu.uib.no). […]

[5] = test system: A2058 and SKMEL3 cells with CRISPR KO of SLFN12; test: 72 h Cell Titer-Glo survival of cells with CRISPR KO of SLFN12; conditions: CRISPR KO of SLFN12 (sg4)
Protocol: A2058 and SKMEL3 are representative melanoma cell lines. Survival is measured with a 72 h Cell Titer-Glo assay and CRISPR was performed with sg4, SLFN12 CRISPR guide RNA #4.
as §2
FIG. 3A illustrates the survival of cells in the presence of DNMDP that have had CRISPR knockout of SLFN12. FIG. 3B illustrates the survival of cells in the presence of DNMDP that have had CRISPR knockout of PDE3A (with and without ectopic expression of PDE3B). […] The survival in FIGS. 3A and 3B was measured with a 72 h Cell Titer-Glo assay and CRISPR was performed with sg4, SLNF12 CRISPR guide RNA #4.

T1 sequence (Q14432 whole entry): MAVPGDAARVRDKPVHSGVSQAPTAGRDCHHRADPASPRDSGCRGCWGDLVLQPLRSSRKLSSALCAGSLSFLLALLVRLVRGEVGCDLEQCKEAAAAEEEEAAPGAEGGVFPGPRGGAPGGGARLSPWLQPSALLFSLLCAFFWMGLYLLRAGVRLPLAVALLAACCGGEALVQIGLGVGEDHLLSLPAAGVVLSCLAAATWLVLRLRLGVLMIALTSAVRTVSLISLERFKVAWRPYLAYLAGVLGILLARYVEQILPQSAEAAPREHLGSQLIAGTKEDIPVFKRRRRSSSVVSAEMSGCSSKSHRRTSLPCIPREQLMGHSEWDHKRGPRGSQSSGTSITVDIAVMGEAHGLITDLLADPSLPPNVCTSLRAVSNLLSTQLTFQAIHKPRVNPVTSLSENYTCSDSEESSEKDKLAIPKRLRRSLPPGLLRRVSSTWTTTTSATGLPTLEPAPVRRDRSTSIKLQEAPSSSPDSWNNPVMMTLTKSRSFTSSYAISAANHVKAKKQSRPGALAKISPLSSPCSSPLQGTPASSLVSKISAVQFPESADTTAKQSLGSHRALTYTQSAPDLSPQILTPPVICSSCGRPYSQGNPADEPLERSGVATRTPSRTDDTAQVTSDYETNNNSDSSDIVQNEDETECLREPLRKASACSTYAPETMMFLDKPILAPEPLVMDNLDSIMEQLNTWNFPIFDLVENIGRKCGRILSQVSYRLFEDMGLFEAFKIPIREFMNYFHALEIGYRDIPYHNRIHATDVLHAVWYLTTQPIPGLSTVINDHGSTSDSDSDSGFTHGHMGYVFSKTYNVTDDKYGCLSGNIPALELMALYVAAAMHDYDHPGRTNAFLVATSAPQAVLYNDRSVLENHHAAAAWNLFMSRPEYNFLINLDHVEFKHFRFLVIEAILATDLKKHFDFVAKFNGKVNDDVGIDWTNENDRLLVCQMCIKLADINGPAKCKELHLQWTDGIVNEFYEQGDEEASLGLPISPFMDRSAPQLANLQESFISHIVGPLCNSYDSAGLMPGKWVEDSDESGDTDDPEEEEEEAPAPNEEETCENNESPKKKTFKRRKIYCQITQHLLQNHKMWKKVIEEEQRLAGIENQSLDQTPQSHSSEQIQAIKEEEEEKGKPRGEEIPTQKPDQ
T1 sequence (Q8IYM2 whole entry partner): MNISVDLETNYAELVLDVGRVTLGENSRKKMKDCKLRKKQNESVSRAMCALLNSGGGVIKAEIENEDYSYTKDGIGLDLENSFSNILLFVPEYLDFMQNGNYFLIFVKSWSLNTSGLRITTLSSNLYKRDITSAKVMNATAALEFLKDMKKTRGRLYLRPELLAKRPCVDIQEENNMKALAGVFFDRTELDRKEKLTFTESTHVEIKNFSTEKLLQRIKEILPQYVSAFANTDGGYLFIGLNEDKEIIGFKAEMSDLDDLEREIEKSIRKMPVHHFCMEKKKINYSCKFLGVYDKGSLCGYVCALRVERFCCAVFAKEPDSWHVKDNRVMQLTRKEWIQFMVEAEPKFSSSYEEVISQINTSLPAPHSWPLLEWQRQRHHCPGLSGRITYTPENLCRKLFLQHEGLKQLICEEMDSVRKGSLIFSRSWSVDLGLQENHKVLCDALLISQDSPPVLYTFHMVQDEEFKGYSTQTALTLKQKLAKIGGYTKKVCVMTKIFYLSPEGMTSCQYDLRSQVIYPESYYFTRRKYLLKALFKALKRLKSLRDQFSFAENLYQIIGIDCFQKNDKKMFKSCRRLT

SMILES | cancer cell killing in cells lacking AIP (FIG. 8A) (HeLa cells; HeLa cells having an AIP knock out (KOsg2, KOsg3)) | cervical cancer cell viability (FIG. 8A) (HeLa cells; HeLa cells, increasing concentrations) | complex formation between PDE3A and FLAG-tagged SLFN12 with AIP knocked out (FIG. 8B) (PDE3A-SLFN12 complex) | complex formation between PDE3A and FLAG-tagged SLFN12 (FIG. 8B) (PDE3A-SLFN12 complex) | AUC [1] | AUC (HeLa cells; HeLa (cervical), 72 h Cell Titer Glo dose response, AUC on a scale from 0-4) | cell response after AIP knockout (FIG. 6A) (HeLa cells; HeLa cells, AIP CRISPR knockout with independent gRNAs, 72-hour Cell Titer-Glo) | sensitivity in PDE3A knockout cells with ectopic PDE3B expression (FIG. 3B) (HeLa cells; PDE3A knockout HeLa cells, ectopic expression of PDE3B, 72 h Cell Titer-Glo) | AUC (C32 melanoma cell line; C32 (melanoma), 72 h Cell Titer Glo dose response, AUC on a scale from 0-4) | sensitivity of cell line (dose response, FIG. 2A) (C32 melanoma cell line; C32 cells, 72 h Cell Titer-Glo) | AUC (IGR37 melanoma cell line) | AUC [2] | AUC ([3]; UACC257 (melanoma, lacks AIP expression), 72 h Cell Titer Glo dose response, AUC on a scale from 0-4) | sensitivity of cell line (dose response, FIG. 2A) ([3]; UACC257 cells, 72 h Cell Titer-Glo) | AUC (HMCB melanoma cell line) | AUC ([4]; RVH421 (melanoma, PDE3B/SLFN12 biomarker-positive), 72 h Cell Titer Glo dose response, AUC on a scale from 0-4) | sensitivity of cell line (dose response, FIG. 2A) ([4]; RVH421 cells, 72 h Cell Titer-Glo) | AUC (A2058 melanoma cell line) | PDE3A-SLFN12 complex formation after AIP knockout (FIG. 7) (PDE3A-SLFN12 complex; AIP-knockout HeLa cells, V5-tagged SLFN12, PDE3A immunoprecipitates, 10 μM) | sensitivity after SLFN12 knockout (FIG. 3A) [5]
C[C@@H]1OC(=O)NN=C1c1ccc(-c2ccc(F)cc2)c(C(F)(F)F)c1 [Compound X, (6S)-5-[4′-fluoro-2-(trifluoromethyl)biphenyl-4-yl]-6-methyl-3,6-dihydro-2H-1,3,4-oxadiazin-2-one] | no cancer cell killing was observed | reduced at increasing concentrations | not observed | induced |  |  |  |  |  |  |  |  |  |  |  |  |  |  |  | 
CCN(CC)c1ccc(C2=NNC(=O)CC2C)cc1[N+](=O)[O-] (stereo not shown) [DNMDP, 6-(4-(diethylamino)-3-nitrophenyl)-5-methyl-4,5-dihydropyridazin-3(2H)-one] |  |  | not observed | induced | 1.19 | 0.36 | AIP knockout eliminates HeLa cell response | support DNMDP sensitivity | 3.13 | only partially sensitive | 1.17 | 1.74 | 4.00 | completely insensitive | 1.85 | 3.02 | only partially sensitive | 2.11 | completely abolished | SLFN12 knockout abrogates all measured sensitivity
